Assay results: ChEMBL document CHEMBL5154644, “Design, Synthesis, and Structure-Activity Relationship Optimization of Pyrazolopyrimidine Amide Inhibitors of Phosphoinositide 3-Kinase γ (PI3Kγ)” (J Med Chem, 2022)
Calls of active or inactive are those of the source. The calls are words filed in the database; no cut-off is given here.

Columns and labels:
[1] = Clearance in C57BL/6 mouse at 0.5 mg/kg, iv; format: ADME, organism-based; conditions: in vivo
[2] = Metabolic stability in human hepatocytes assessed as intrinsic clearance per 10^6 cells at 0.5 uM by LC-MS/MS analysis; format: ADME, cell-based, Hepatocyte; conditions: read-out: CLH
Homo sapiens [3] = species: Homo sapiens; assay: Selectivity ratio of IC50 for inhibition of PI3Kalpha (unknown origin) to IC50 for inhibition of PI3Kgamma (unknown origin)
[4] = target: T1, Phosphatidylinositol 4,5-bisphosphate 3-kinase catalytic subunit gamma isoform (Homo sapiens, UniProt P48736); assay: Inhibition of PI3Kgamma (unknown origin) using PIP2 as substrate preincubated for 1 hr followed by substrate addition and measured after 60 mins in presence of ATP by ADP-glo assay
Target sequence in this assay (P48736 whole entry, canonical isoform): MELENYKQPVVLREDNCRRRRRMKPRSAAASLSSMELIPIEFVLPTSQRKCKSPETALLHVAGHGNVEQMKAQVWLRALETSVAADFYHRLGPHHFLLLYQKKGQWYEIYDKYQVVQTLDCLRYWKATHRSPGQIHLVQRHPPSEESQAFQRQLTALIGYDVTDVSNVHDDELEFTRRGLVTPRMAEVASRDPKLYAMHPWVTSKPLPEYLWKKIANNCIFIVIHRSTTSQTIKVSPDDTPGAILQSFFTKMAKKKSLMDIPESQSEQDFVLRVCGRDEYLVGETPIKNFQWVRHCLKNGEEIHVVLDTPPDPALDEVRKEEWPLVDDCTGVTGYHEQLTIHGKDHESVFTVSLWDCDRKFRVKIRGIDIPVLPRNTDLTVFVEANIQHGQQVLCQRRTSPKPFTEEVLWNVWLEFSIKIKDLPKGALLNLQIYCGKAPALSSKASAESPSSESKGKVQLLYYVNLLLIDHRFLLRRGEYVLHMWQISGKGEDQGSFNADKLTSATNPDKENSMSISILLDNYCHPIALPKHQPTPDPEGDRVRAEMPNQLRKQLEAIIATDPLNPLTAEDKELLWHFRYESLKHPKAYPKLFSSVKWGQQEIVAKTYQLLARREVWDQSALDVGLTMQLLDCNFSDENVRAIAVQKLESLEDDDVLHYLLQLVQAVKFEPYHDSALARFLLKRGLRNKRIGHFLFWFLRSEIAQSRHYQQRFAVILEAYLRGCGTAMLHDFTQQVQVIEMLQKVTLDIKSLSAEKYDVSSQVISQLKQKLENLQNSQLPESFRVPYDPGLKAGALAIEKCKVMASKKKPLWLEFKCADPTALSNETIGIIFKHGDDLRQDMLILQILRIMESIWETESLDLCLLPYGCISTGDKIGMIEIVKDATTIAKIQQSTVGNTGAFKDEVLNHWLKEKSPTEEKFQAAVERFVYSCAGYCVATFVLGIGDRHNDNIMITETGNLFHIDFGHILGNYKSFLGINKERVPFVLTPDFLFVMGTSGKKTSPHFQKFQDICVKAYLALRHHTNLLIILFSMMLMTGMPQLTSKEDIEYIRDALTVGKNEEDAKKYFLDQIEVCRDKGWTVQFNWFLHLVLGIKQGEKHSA

[5] = Metabolic stability in rat hepatocyte assessed as intrinsic clearance per 10^8 cells at 0.5 uM by LC-MS/MS analysis; format: ADME, cell-based; conditions: hepatocytes
[6] = target: Phosphatidylinositol 4,5-bisphosphate 3-kinase catalytic subunit alpha isoform (Homo sapiens, UniProt P42336); assay: Inhibition of PI3Kalpha (unknown origin) using PIP2 as substrate preincubated for 1 hr followed by substrate addition and measured after 60 mins in presence of ATP by ADP-glo assay
Chain of Phosphatidylinositol 4,5-bisphosphate 3-kinase catalytic subunit alpha isoform (P42336 whole entry, canonical isoform): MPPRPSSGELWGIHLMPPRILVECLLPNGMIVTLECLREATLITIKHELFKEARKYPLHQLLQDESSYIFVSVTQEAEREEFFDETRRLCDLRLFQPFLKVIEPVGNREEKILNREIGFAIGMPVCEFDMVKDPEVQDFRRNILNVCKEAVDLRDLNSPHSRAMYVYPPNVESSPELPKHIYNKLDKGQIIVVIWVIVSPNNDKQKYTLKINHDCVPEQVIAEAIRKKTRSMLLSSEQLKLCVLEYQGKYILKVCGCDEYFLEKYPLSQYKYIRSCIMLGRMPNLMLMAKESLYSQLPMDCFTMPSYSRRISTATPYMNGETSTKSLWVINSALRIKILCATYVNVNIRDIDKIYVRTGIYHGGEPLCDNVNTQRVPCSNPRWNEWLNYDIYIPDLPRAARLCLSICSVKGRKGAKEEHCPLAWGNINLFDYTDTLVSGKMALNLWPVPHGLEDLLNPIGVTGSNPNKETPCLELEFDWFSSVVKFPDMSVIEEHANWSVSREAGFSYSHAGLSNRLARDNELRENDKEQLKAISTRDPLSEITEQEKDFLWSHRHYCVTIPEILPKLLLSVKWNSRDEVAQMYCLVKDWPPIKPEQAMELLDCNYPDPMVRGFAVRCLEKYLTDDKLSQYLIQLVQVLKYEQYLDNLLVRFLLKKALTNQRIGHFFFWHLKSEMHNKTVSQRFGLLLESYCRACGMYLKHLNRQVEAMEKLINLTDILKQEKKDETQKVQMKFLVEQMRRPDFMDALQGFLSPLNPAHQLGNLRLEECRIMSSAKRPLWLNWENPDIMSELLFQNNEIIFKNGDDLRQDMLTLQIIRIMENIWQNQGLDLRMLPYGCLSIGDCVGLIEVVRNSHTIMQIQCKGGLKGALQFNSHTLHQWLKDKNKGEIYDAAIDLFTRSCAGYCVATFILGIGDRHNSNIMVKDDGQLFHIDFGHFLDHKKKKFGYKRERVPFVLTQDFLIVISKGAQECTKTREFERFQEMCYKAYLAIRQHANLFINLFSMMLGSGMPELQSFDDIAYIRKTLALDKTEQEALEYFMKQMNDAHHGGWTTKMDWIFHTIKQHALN

[7] = Volume of distribution at steady state in Beagle dog at 1 mg/kg, iv; format: ADME, organism-based, Canis lupus familiaris; conditions: in vivo
hERG = hERG (Homo sapiens, UniProt Q12809); assay: Inhibition of human ERG at 10 uM by patch clamp assay relative to control; format: toxicity
Chain of hERG (Q12809 whole entry): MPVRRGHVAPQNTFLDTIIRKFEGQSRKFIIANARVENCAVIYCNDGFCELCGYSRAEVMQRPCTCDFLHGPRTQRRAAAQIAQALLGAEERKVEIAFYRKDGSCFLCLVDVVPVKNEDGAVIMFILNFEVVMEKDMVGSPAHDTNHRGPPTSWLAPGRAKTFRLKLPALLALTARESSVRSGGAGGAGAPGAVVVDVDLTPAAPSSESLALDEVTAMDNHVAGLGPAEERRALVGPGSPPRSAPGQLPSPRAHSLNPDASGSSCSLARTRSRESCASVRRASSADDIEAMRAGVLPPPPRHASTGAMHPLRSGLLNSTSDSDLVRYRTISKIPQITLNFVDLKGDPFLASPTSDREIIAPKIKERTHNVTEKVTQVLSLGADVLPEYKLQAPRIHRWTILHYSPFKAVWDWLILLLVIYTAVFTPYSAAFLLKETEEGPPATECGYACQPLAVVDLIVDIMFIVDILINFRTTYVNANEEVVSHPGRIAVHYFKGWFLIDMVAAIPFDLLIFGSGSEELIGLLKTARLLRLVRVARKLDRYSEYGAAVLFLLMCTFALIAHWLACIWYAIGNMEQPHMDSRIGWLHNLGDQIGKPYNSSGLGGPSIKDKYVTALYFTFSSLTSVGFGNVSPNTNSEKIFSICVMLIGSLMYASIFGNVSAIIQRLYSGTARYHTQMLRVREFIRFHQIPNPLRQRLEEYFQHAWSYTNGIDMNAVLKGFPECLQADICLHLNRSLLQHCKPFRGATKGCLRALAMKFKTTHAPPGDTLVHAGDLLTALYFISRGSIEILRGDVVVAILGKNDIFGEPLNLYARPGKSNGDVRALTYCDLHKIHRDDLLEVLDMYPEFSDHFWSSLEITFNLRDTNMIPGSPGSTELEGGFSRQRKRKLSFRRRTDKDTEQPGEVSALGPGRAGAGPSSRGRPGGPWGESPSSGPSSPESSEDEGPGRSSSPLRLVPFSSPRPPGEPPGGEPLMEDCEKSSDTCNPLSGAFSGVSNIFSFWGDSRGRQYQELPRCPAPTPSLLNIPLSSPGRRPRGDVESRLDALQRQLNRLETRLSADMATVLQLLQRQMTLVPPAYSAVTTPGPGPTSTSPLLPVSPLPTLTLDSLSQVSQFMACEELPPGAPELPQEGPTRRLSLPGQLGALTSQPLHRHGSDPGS

[8] = AUC(0 to infinity) in Sprague-Dawley rat at 10 mg/kg, po measured up to 24 hrs by LC-MS/MS analysis analysis; format: ADME, organism-based; set-up: dose 10 mg/kg, time < 24 hrs, route po; conditions: in vivo
[9] = AUC(0 to infinity) in Beagle dog at 1 mg/kg, iv; format: ADME, organism-based, Canis lupus familiaris; set-up: time infinity, dose 1 mg/kg, route iv; conditions: in vivo
[10] = AUC(0 to infinity) in C57BL/6 mouse at 0.5 mg/kg, iv; format: ADME, organism-based; set-up: time infinity, dose 0.5 mg/kg, route iv; conditions: in vivo
[11] = Oral bioavailability in Sprague-Dawley rat at 10 mg/kg measured up to 24 hrs by LC-MS/MS analysis; format: ADME, organism-based; conditions: in vivo
[12] = target: Phosphatidylinositol 4,5-bisphosphate 3-kinase catalytic subunit beta isoform (Homo sapiens, UniProt P42338); assay: Inhibition of PI3Kbeta (unknown origin) using PIP2 as substrate preincubated for 1 hr followed by substrate addition and measured after 60 mins in presence of ATP by ADP-glo assay
Chain of Phosphatidylinositol 4,5-bisphosphate 3-kinase catalytic subunit beta isoform (P42338 whole entry, canonical isoform): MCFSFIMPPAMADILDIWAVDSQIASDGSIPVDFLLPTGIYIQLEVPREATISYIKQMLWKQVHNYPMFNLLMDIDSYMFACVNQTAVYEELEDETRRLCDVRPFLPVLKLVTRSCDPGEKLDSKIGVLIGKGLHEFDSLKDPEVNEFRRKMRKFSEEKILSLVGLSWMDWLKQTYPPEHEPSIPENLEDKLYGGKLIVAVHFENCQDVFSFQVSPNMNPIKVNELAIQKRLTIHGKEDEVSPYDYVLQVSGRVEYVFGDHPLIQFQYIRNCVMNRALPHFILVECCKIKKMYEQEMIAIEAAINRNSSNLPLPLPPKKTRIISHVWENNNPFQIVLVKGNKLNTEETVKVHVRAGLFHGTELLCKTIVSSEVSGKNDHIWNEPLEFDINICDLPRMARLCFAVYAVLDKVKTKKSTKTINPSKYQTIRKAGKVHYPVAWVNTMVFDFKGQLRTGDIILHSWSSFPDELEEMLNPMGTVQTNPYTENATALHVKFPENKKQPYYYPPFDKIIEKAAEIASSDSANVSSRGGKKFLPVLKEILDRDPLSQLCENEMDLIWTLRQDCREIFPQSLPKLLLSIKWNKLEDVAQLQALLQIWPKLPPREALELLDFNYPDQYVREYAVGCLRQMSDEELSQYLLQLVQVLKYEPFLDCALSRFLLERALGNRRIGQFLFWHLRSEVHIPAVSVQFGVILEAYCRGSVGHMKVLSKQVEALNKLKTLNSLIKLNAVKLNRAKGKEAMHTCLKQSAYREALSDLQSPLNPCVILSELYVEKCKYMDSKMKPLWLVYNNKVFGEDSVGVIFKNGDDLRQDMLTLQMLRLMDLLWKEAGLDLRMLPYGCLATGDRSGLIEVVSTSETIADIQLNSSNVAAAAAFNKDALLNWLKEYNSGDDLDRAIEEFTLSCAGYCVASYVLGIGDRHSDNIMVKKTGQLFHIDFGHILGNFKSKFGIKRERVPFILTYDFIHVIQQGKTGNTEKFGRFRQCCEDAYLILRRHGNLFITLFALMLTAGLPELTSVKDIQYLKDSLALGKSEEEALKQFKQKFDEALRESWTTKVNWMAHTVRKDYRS

[13] = Half life in Sprague-Dawley rat at 1 mg/kg, iv measured up to 8 hrs by LC-MS/MS analysis; format: ADME, organism-based; conditions: in vivo
[14] = Half life in cynomolgus monkey at 1 mg/kg, iv; format: ADME, organism-based, Macaca fascicularis; conditions: in vivo
[15] = target: T1, Phosphatidylinositol 4,5-bisphosphate 3-kinase catalytic subunit gamma isoform; assay: Inhibition of PI3Kgamma (unknown origin) in […] stimulated human THP-1 cells assessed as reduction in Akt phosphorylation level at Ser473 residue preincubated for 60 mins followed by rhMCP-1 stimulation and measured after 2 mins by AlphaLisa assay; format: cell-based
Target sequence in this assay (P48736 whole entry, canonical isoform): as the sequence (P48736 whole entry, canonical isoform) above

Homo sapiens [16] = species: Homo sapiens; assay: Selectivity ratio of IC50 for inhibition of PI3Kbeta (unknown origin) to IC50 for inhibition of PI3Kgamma (unknown origin)
[17] = Plasma protein binding in Sprague-Dawley rat plasma at 1 mg/kg, iv measured up to 8 hrs by LC-MS/MS analysis; format: ADME, organism-based; conditions: read-out: PPB (converted)
[18] = Clearance in Sprague-Dawley rat at 1 mg/kg, iv measured up to 8 hrs by LC-MS/MS analysis; format: ADME, organism-based; conditions: in vivo
[19] = target: T1, Phosphatidylinositol 4,5-bisphosphate 3-kinase catalytic subunit gamma isoform; assay: Inhibition of P13Kgamma in LPS and IFNgamma stimulated human M1 macrophage assessed as increase in IL12B expression at 1 uM pretreated for 1 hr followed by LPS and IFNgamma stimulation by qRT-PCR analysis; format: cell-based
Target sequence in this assay (P48736 whole entry, looked up, canonical isoform): as the sequence (P48736 whole entry, canonical isoform) above

[20] = Cmax in Sprague-Dawley rat at 10 mg/kg, po measured up to 24 hrs by LC-MS/MS analysis analysis; format: ADME, organism-based; set-up: dose 10 mg/kg, time < 24 hrs, route po; conditions: in vivo
[21] = target: T1, Phosphatidylinositol 4,5-bisphosphate 3-kinase catalytic subunit gamma isoform; assay: Inhibition of P13Kgamma in LPS and IFNgamma stimulated human M1 macrophage assessed as increase in IL1B expression at 1 uM pretreated for 1 hr followed by LPS and IFNgamma stimulation by qRT-PCR analysis; format: cell-based
Target sequence in this assay (P48736 whole entry, looked up, canonical isoform): as the sequence (P48736 whole entry, canonical isoform) above

[22] = target: T1, Phosphatidylinositol 4,5-bisphosphate 3-kinase catalytic subunit gamma isoform; assay: Inhibition of P13Kgamma in LPS and IFNgamma stimulated human M1 macrophage assessed as increase in TNFA expression at 1 uM pretreated for 1 hr followed by LPS and IFNgamma stimulation by qRT-PCR analysis; format: cell-based
Target sequence in this assay (P48736 whole entry, looked up, canonical isoform): as the sequence (P48736 whole entry, canonical isoform) above

[23] = Hepatic clearance in Sprague-Dawley rat by LC-MS/MS analysis; format: ADME; conditions: in vivo
[24] = target: T1, Phosphatidylinositol 4,5-bisphosphate 3-kinase catalytic subunit gamma isoform; assay: Inhibition of PI3Kgamma in SDF-1alpha stimulated human whole blood assessed as reduction in phospho-AKT kinase activity preincubated for 1 hr followed by SDF-1alpha stimulation and measured after 2 mins by flow cytometric analysis; format: tissue-based
Target sequence in this assay (P48736 whole entry, canonical isoform): as above

CYP3A4 = CYP3A4 (Homo sapiens, UniProt P08684); assay: in vitro; conditions: human liver microsomes, probe midazolam
Description: Time dependent inhibition of CYP3A4 in human liver microsomes at 10 uM using midazolam as substrate preincubated for 30 mins in presence of NADPH by LC/MS/MS analysis relative to control

[25] = MRT (infinity) in C57BL/6 mouse at 0.5 mg/kg, iv; format: ADME, organism-based; conditions: in vivo
[26] = MRT (infinity) in Sprague-Dawley rat at 1 mg/kg, iv measured up to 8 hrs by LC-MS/MS analysis; format: ADME, organism-based; conditions: in vivo
[27] = Half life in C57BL/6 mouse at 0.5 mg/kg, iv; format: ADME, organism-based; conditions: in vivo
[28] = Volume of distribution at steady state in C57BL/6 mouse at 0.5 mg/kg, iv; format: ADME, organism-based; conditions: in vivo
[29] = AUC(0 to infinity) in Sprague-Dawley rat at 1 mg/kg, iv measured up to 8 hrs by LC-MS/MS analysis; format: ADME, organism-based; set-up: dose 1 mg/kg, time < 8 hrs, route iv; conditions: in vivo
[30] = Apparent permeability of the compound across apical to basolateral side in human Caco-2 cells; format: ADME, cell-based
[31] = target: T1, Phosphatidylinositol 4,5-bisphosphate 3-kinase catalytic subunit gamma isoform; assay: Inhibition of P13Kgamma in LPS and IFNgamma stimulated human M1 macrophage assessed as increase in IL6 expression at 1 uM pretreated for 1 hr followed by LPS and IFNgamma stimulation by qRT-PCR analysis; format: cell-based
Target sequence in this assay (P48736 whole entry, looked up, canonical isoform): as the sequence (P48736 whole entry, canonical isoform) above

[32] = Half life in Beagle dog at 1 mg/kg, iv; format: ADME, organism-based, Canis lupus familiaris; conditions: in vivo
[33] = MRT (infinity) in cynomolgus monkey at 1 mg/kg, iv; format: ADME, organism-based, Macaca fascicularis; conditions: in vivo
[34] = Volume of distribution at steady state in Sprague-Dawley rat at 1 mg/kg, iv measured up to 8 hrs by LC-MS/MS analysis; format: ADME, organism-based; conditions: in vivo
[35] = Metabolic stability in human hepatocytes assessed as parent compound remaining at 0.5 uM measured after 4 hrs by LC-MS/MS analysis; format: ADME, cell-based, Hepatocyte; conditions: read-out: Stability
[36] = Plasma protein binding in Beagle dog at 1 mg/kg, iv; format: ADME, organism-based, Canis lupus familiaris; conditions: read-out: PPB (converted)

Row | clearance [1] [mL/min/kg] | hepatocyte CLint at 0.5 µM [2] [µL/min/1e6 cells] | Ratio IC50 (Homo sapiens [3]) | IC50 [4] [nM] | hepatocyte intrinsic clearance [5] [µL/min] | IC50 [6] [nM] | Vdss [7] [L/kg] | AUC(0-inf) [8] [ng·h/mL] | AUC(0-inf) [9] [ng·h/mL] | AUC(0-inf) [10] [ng·h/mL] | bioavailability [11] [%] | IC50 [12] [nM] | half-life [13] [h] | half-life [14] [h] | IC50 [15] [nM] | Ratio IC50 (Homo sapiens [16]) | fraction unbound at 8 h [17] | clearance [18] [mL/min/kg] | inhibition [19] | Compound | inhibition at 10 µM (hERG) [%] | further results
1 | 17.2 | < 1.2 | 946 | 2.8 | 6.07 | 2650 | 3.24 | 249 | 1240 | 488 | 4 | 29300 | 2.17 | 3.65 | 38 | 7040 | 0.023 | 20.8 | Active | C[C@@H](C1CC1)N1Cc2cc(-c3ccn4nc(N)c(C(=O)N[C@H]5CC[C@@](C)(O)CC5)c4n3)cc(OC(F)(F)F)c2C1=O | 5 | Cmax [20]: 25 ng/mL; inhibition [21]: Active; inhibition [22]: Active; CLH [23]: 30 mL/min/kg; IC50 [24]: 240 nM; inhibition at 30 min, 10 µM (CYP3A4): 10%; MRT inf [25]: 2.03 h; MRT inf [26]: 2.33 h; half-life [27]: 3.93 h; Vdss [28]: 2.09 L/kg; AUC(0-inf) [29]: 797 ng·h/mL; Papp A→B [30]: 4.7 ×10⁻⁶ cm/s; inhibition [31]: Active; half-life [32]: 3.5 h; MRT inf [33]: 3.58 h; Vdss [34]: 2.91 L/kg; remaining at 4 h, 0.5 µM [35]: > 95%; fraction unbound [36]: 0.048
2 | 14.7 | < 1.2 | 657 | 1.9 | 2.62 | 1250 | 3.55 | 8160 | 1800 | 565 | 102 | 9210 | 1.89 | 3.18 | 34 | 3680 | 0.021 | 27.5 | Active | C[C@@H](C1CC1)N1Cc2cc(-c3ccn4nc(N)c(C(=O)N[C@H]5CC[C@@](C)(O)CC5)c4n3)cc(OC(F)F)c2C1=O | 17 | Cmax [20]: 703 ng/mL; inhibition [21]: Active; inhibition [22]: Active; CLH [23]: 25 mL/min/kg; IC50 [24]: 300 nM; inhibition at 30 min, 10 µM (CYP3A4): 10%; MRT inf [25]: 1.87 h; MRT inf [26]: 1.86 h; half-life [27]: 4.98 h; Vdss [28]: 1.66 L/kg; AUC(0-inf) [29]: 630 ng·h/mL; Papp A→B [30]: 16.8 ×10⁻⁶ cm/s; inhibition [31]: Active; half-life [32]: 4.85 h; MRT inf [33]: 3.41 h; Vdss [34]: 3.03 L/kg; remaining at 4 h, 0.5 µM [35]: > 95%; fraction unbound [36]: 0.034
